From publication PMC11374660, “The novel family of Warbicin® compounds inhibits glucose uptake both in yeast and human cells and restrains cancer cell proliferation” (Frontiers in Oncology, 2024)
Where two headings read alike, the source gives them in different places.

Experiments:
[1] = tested on: glucose uptake by tps1Δ yeast cells; assay: Zero-trans uptake of radioactive glucose in tps1Δ yeast cells; type: cell-based, S. cerevisiae; settings: for IC50: Saccharomyces cerevisiae
Procedure: Zero-trans uptake of radioactively labeled [U-^14C]glucose, [U-^14C]fructose or [U-^14C]galactose by S. cerevisiae cells was determined in accordance with previous studies ([45], [75]). Cells were grown on different carbon sources depending on the experiment. For measuring glucose uptake activity in the tps1Δ and tps1Δ hxtΔ strains, cells were grown on YP medium containing 325 mM glycerol (measurement of 10 s). Typically, for compound characterization and kinetic studies in wild type and tps1Δ strains, cells were (pre)grown on Complete Synthetic medium supplemented with 110 mM galactose (measurement of 10 s). In the experiments on the influence of hexokinase activity on the sugar uptake rate, the measurement duration was shortened to 5 s and cells were always grown on YP medium containing 325 mM glycerol and 430 mM ethanol. After harvesting, cells were washed twice with ice-cold 25 mM MES-buffer pH 6, and resuspended in their respective medium without sugar to a final concentration of 45 mg (wet weight)/mL. The amount of added tracer was estimated to give a response close to at least 1000 counts per min in order to adequately counter background noise. Cells were first preincubated for 10 min at 30°C with the compound to acclimate the cells to the temperature and to allow adequate interaction with the compound prior to uptake. Next, hexose sugar was mixed with the cell suspension, which was then incubated at 30°C for 5 or 10 s, depending on the experiment, after which the cells were rapidly filtered over a glass microfiber filter (Whatman GF/C) and washed three times with ice-cold dH2O. The loaded filter was transferred to a scintillation vial containing 3 mL liquid scintillation cocktail (Ultima-Flo M, Perkin Elmer) and counted using the Hidex 300 SL. Three blank measurements per strain were typically included to account for background signal, for which the cells were first quenched before adding the radioactive label.

yeast tps1Δ strain = assay: Growth (rescue) of the yeast tps1Δ strain on galactose with or without glucose; type: cell-based, S. cerevisiae
Procedure: Growth curves were made by measuring OD595 in a 96-well plate using the Multiskan™ FC Microplate Photometer (Thermo Fisher Scientific). Typically, for tps1Δ rescue experiments, cells were (pre)grown in Complete Synthetic medium containing 110 mM galactose. Compounds were always added 10 min prior to glucose addition to ensure maximal interaction between the cells and compounds. Cells originating from the preculture were harvested, washed in medium without sugar, after which they were resuspended to an OD of 0.1 in 200 µL of the appropriate medium. At least three technical replicates were included per condition. OD595 was measured at 30°C every 30 min with a 10-min shaking interval.

[2] = tested on: A549 lung adenocarcinoma cells; assay: Proliferation of A549 lung adenocarcinoma cells; type: cell-based, human; settings: for relative potency in reducing maximal growth rate of A549 cells: 1 mM glucose, 6.25-50 µM
Procedure: For both adherent A549 and MCF10A H-RAS^V12 cell lines, growth curves were established using the IncuCyte® ZOOM technology. By collecting phase contrast images, the IncuCyte® software provides a calculated confluency percentage from which growth curves can be deducted. The cell number/density was measured by calculating the confluency of phase objects (cells) sticking on the bottom of the well. Cells were seeded at a density of 1000 - 1500 cells/well in a Nunc-Edge™ 96-well plate (Thermo Fisher Scientific) and growth was typically measured over 3 to 5 days. For the measurement of apoptosis induction using the MCF10A H-RAS^V12 cell line, the IncuCyte® Caspase-3/7 green dye was added to the medium in the recommended concentration at the beginning of the growth curve experiment. Apoptosis was detected by taking fluorescent images by excitation at 488 nm followed by IncuCyte® software analysis. Cell growth of the KMS-12-PE multiple myeloma cell line, which grows in suspension, was measured by manual cell counting. Cells were initially seeded at a density of 10^4 cells/well and incubated for 4 days after which the cell number was counted. For all cell lines, the same medium used for pregrowth was also used for the growth curve experiment, albeit with different glucose concentrations depending on the experimental design. With compound administration, the final concentration of DMSO never exceeded 0.1%. Typically, at least four technical repeats were included per condition.

[3] = tested on: A549 lung adenocarcinoma cells; assay: Glucose consumption and lactate production over 8 h, A549; type: cell-based, human; settings: A549, 25 µM, 1 mM glucose
Procedure: The influence of WBC compounds on glucose consumption over a longer time period was studied in the A549 adenocarcinoma and KMS-12-PE multiple myeloma cell lines. As such, different parameters needed to be optimized depending on whether cells were adherent or in suspension. As such, A549 cells were incubated at 125,000 cells/well in a 24-well plate in 300 µL RPMI medium for 8 h. For the KMS-12-PE cell line, 100,000 cells/well were incubated in 100 µL RPMI medium in a 96-well plate for 8 h. Medium was collected, spun down and HPLC-analyzed for measuring glucose and lactate levels. Metabolite levels were corrected for cell number, which always varied little over the span of 8 h. For every condition, at least 4 technical repeats were included.

female NMRI-nu mice = assay: In vivo toxicity and tolerability in mice; settings: for abnormalities / toxic effects in liver and other organs at autopsy: daily i.p., toxic effects at 20 mg/kg WBC-15C and at 20 and 10 mg/kg WBC-11C, not at lower doses; for loss in body weight: daily intraperitoneal injection, 5, 10 and 20 mg/kg; for AST/ALT ratio vs vehicle: sera after 20 days, 5, 10, 20 mg/kg daily i.p.; for blood glucose level vs vehicle: sera post-mortem after 20 days, 5, 10, 20 mg/kg daily i.p.
Procedure: Warbicin ® in vivo toxicity and tolerability was examined by subjecting female NMRI-nu mice (12 weeks old) to daily intraperitoneal injection of either WBC-A, WBC-15C, WBC-4C or WBC-11C. Compounds were dosed at either 5 mg/kg, 10 mg/kg or 20 mg/kg over a period of 20 days. Three mice were used per condition. To evaluate toxicity, change in body weight was registered daily. As a humane endpoint, mice that lost more than 20% of their original body weight were prematurely sacrificed. In addition, liver function was examined by measuring the ratio of the AST to ALT enzyme activities (AbCam ab105135, ab105134) in sera samples collected at the end of the experiment. Furthermore, the blood glucose level in mice sera was determined using the colorimetric GOD-PAP method. Due to their considerable hydrophobicity, the compounds were dissolved in a sterilized 1xPBS, 5% DMSO and 5% Tween-80 solution until a homogenous suspension was obtained that could be administered in a reproducible way.

Cc1nc(Sc2nnc3n2CCCCC3)c2c(-c3cccs3)csc2n1 [WBC-A]
IC50 ([1]; read-out: IC50 for inhibition of 2.5 mM glucose uptake): 20.8 µM
type of inhibition of glucose uptake ([1]; tps1Δ yeast cells): mixed type of inhibition
Ki ([1]; tps1Δ yeast cells, read-out: Ki (Dixon plot) for glucose uptake): 8.35 µM
rescue of growth on galactose in the presence of 5 mM glucose (yeast tps1Δ strain; 100 μM): rescued growth
restoration of growth in the presence of 7.5 mM glucose (yeast tps1Δ strain; 100 μM): not able to restore growth
Rescue of the tps1∆ strain on 2.5 mM glucose at 100 µM (yeast tps1Δ strain): Yes
Minimal rescue concentration for growth of tps1∆ cells on 2.5 mM glucose (yeast tps1Δ strain): 25 µM
Selected from primary screen for growth inhibition of A549 cells at 50 µM ([2]; RPMI 1 mM glucose): Yes
relative potency in reducing maximal growth rate of A549 cells [2]: intermediate potency
inhibition of A549 growth ([2]; RPMI 1 mM glucose, 12.5 µM): pronounced inhibition
inhibition of A549 growth ([2]; RPMI 1 mM glucose, concentrations higher than 12.5 µM (25, 50 µM)): completely blocked continued cancer cell proliferation
inhibition of A549 growth ([2]; RPMI 1 mM or 5 mM glucose, 12.5-50 µM, more pronounced for 1 mM): dose-dependent inhibition of growth
inhibition of glucose consumption and lactate production [3]: did not cause inhibition
abnormalities / toxic effects in liver and other organs at autopsy (female NMRI-nu mice; 20 days): No other abnormalities
loss in body weight (female NMRI-nu mice; nude mice, 20 days): no significant loss in body weight
AST/ALT ratio vs vehicle (female NMRI-nu mice): No significant difference
blood glucose level vs vehicle (female NMRI-nu mice): No significant difference

Cc1nc(SCC(=O)c2ccc3c(c2)NC(=O)CO3)c2c(-c3cccs3)csc2n1 [WBC-11C]
IC50 ([1]; read-out: IC50 values for 2.5 mM glucose uptake in tps1∆ cells): 44 µM
Rescue of the tps1∆ strain on 2.5 mM glucose at 100 µM (yeast tps1Δ strain): Yes
Minimal rescue concentration for growth of tps1∆ cells on 2.5 mM glucose (yeast tps1Δ strain): 50 µM
Selected from primary screen for growth inhibition of A549 cells at 50 µM ([2]; RPMI 1 mM glucose): Yes
relative potency in reducing maximal growth rate of A549 cells [2]: most
Selected for having an IC50 ratio (10 mM glucose : 1 mM glucose) of A549 growth higher than WBC-A ([2]; ratio of IC50 on 10 mM and 1 mM glucose, compared to WBC-A): Higher IC50 ratio and confirmed
inhibition of glucose consumption and lactate production [3]: inhibited glucose consumption and lactate production
abnormalities / toxic effects in liver and other organs at autopsy (female NMRI-nu mice; 20 days): toxic effects were seen in the liver and other organs
adipose tissue at autopsy (female NMRI-nu mice; nude mice, daily i.p., 5, 10 and 20 mg/kg, 20 days, visual inspection vs vehicle): adipose tissue was also observed in between the intestines
loss in body weight (female NMRI-nu mice; nude mice, 20 days): small transient drop
AST/ALT ratio vs vehicle (female NMRI-nu mice): No significant difference
blood glucose level vs vehicle (female NMRI-nu mice): No significant difference
